According to PubChem BioAssay (NCI):
Several values for one entry are separate records, joined by “and”; a condition that tells them apart may be missing. Equal values may be shown once.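 Exposure lasted 48 hours, with cells grown in 96-well plates and compounds tested at five concentrations. GI50 marks 50% less growth. TGI denotes the concentration required for complete inhibition of growth.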

Columns and labels:
Test in all cases: DTP human tumour cell line panel, 48 h
[1] = system: TK-10 renal
[2] = system: NCI-H23 lung
[3] = system: OVCAR-8 ovarian
[4] = system: NCI-H226 lung
[5] = system: SK-OV-3 ovarian
[6] = system: MALME-3M melanoma
[7] = system: OVCAR-3 ovarian
[8] = system: KM12 colon
[9] = system: SF-539 CNS
[10] = system: DU-145 prostate

SMILES | GI50 [1] | TGI [1] | GI50 [2] | TGI [2] | GI50 [3] | TGI [3] | GI50 [4] | TGI [4] | GI50 [5] | TGI [5] | GI50 [6] | TGI [6] | GI50 [7] | TGI [7] | GI50 [8] | TGI [8] | GI50 [9] [µM] | TGI [9] [µM] | TGI [10] | GI50 [10]
[CH3][Hg]/[N]=C(/N)NC#N | 3.35 µM | 14.8 µM | 10.2 µM | 24.5 µM | 3.63 µM | 16.1 µM | 15.6 µM | 32.5 µM | 16.9 µM | 30.8 µM | 2.34 µM | 4.94 µM | 2.74 µM | 8.6 µM | 16.5 µM | 30 µM | 17.7 | 32.4 | – | –
O=C(CC1(O)C(=O)Nc2ccccc21)c1ccccc1O (configuration not stated) | – | > 100 µM | – | > 100 µM | – | > 100 µM | – | > 100 µM | – | > 100 µM | – | > 100 µM | – | > 100 µM | – | – | – | > 100 | – | –
O=C(CC(=O)c1cccc([N+](=O)[O-])c1)C(=O)Nc1ccccc1 | – | > 100 µM | – | > 100 µM | – | > 100 µM | – | > 100 µM | – | – | – | > 100 µM | – | > 100 µM | – | > 100 µM | – | > 100 | – | –
Cc1ccc(NC(=O)CC2SC(=Nc3ccc(Cl)cc3)NC2=O)cc1C (configuration not stated) | – | 31.1 µM | – | 35.6 µM | – | 32.8 µM | – | > 64.3 µM | – | > 66.1 µM | – | 33.2 µM | – | 33.2 µM | – | 40.3 µM | – | 35.4 | – | –
COc1cc2c(cc1-c1coc3cc(O)ccc3c1=O)OCO2 | – | 43.9 µM | – | 40.3 µM | – | 40.1 µM | – | 40.2 µM | – | 37.3 µM | – | – | – | > 100 µM | – | > 100 µM | – | 48.6 | > 100 µM | –
CN1C2(c3ccccc3)C(C(=O)c3ccccc3)=C(C(=O)c3ccccc3)C1(c1ccccc1)c1c(-c3ccccc3)sc(-c3ccccc3)c12 | – | > 100 µM | – | > 100 µM | – | > 100 µM | – | > 100 µM | – | > 100 µM | – | > 100 µM | – | > 100 µM | – | > 100 µM | – | > 100 | – | –
Cc1cc(C)nc(NS(=O)(=O)c2ccc(NC(=O)COC(=O)c3cccc4c(=O)c5ccccc5[nH]c34)cc2)n1 | – | > 100 µM | – | > 100 µM | – | > 100 µM | – | > 100 µM | – | > 100 µM | – | 73 µM | – | 51.4 µM | – | 38.8 µM | – | 34 | – | –
CN1CCN(CCC=C2c3ccccc3Sc3ccc(S(=O)(=O)N(C)C)cc32)CC1 | 2.22 µM and 7.92 µM | 5.05 µM and 23.8 µM | 12.2 µM and 15.7 µM | 71 µM and 52.7 µM | 5.85 µM and 15.2 µM | 24.6 µM and 36.4 µM | 7.04 µM and 15.9 µM | 26.9 µM and 33.7 µM | 9.22 µM and 13.6 µM | 24.7 µM and 30.7 µM | 1.73 µM and 2.54 µM | 3.5 µM and 9.72 µM | 3.84 µM and 6.44 µM | 16.3 µM and 22.7 µM | 3.96 µM and 4.68 µM | 24.3 µM and 16.4 µM | – | – | > 100 µM and 26.9 µM | 13 µM and 12.6 µM
Cc1ccccc1-n1c(CCl)nc2ccc(Br)cc2c1=O | – | 70.1 µM | – | 25.3 µM | – | 27.1 µM | – | 28.4 µM | – | > 100 µM | – | 32.9 µM | – | 27.5 µM | – | 26.9 µM | – | 21.8 | – | –
O=C(Cc1nc2ccccc2o1)C(=O)Nc1ccc(Cl)cc1Cl | – | – | – | > 100 µM | – | > 100 µM | – | > 100 µM | – | > 100 µM | – | > 100 µM | – | > 100 µM | – | – | – | > 100 | – | –
CCn1ncc(N=O)c1N | – | > 100 µM | – | > 100 µM | – | > 100 µM | – | – | – | – | – | – | – | > 100 µM | – | > 100 µM | – | > 100 | > 100 µM | –
CCc1ccccc1NC(=O)C(=O)C1C(=O)N(c2ccccc2)N=C1N (configuration not stated) | – | > 100 µM | – | > 100 µM | – | > 100 µM | – | > 100 µM | – | – | – | > 100 µM | – | > 100 µM | – | > 100 µM | – | > 100 | – | –
Cc1cc(-c2cc(OC(=O)c3ccccc3)ccc2Cl)cc2nnc(Nc3ccc(OCCN4CCCC4)cc3)nc12 | 1.63 µM | 3.03 µM | 1.72 µM | 3.66 µM | 1.7 µM | 3.67 µM | – | – | 1.58 µM | 3.09 µM | 1.45 µM | 2.93 µM | 1.6 µM | 2.97 µM | 1.84 µM | 3.42 µM | 1.29 | 2.57 | 3.17 µM | 1.75 µM
N#C/C(=C\c1ccc[nH]1)C(=O)c1ccccc1 | – | > 100 µM | – | > 100 µM | – | > 100 µM | – | > 100 µM | – | > 100 µM | – | > 100 µM | – | > 100 µM | – | > 100 µM | – | > 100 | – | –
CO/C(=C1/NC(=O)C(Cc2ccc(O)c(Br)c2)N(C)C(=O)C(C)NC(=O)CCC/C=C(\C)CCC(C)OC1=O)c1ccccc1 (configuration not stated) | – | – | 0.106 µM | 22.4 µM | 0.0437 µM | 6.41 µM | 0.365 µM | 3.17 µM | 0.0245 µM | 0.0662 µM | 0.0319 µM | 0.123 µM | < 0.0164 µM | 0.0376 µM | 0.0784 µM | 19.2 µM | 0.0281 | 0.783 | 1.73 µM | < 0.0185 µM
COC(=O)C1=CC(=O)[C@@H]2CCCC[C@H]12 | – | > 100 µM | – | – | – | > 100 µM | – | > 100 µM | – | > 100 µM | – | > 100 µM | – | > 100 µM | – | > 100 µM | – | > 100 | – | –
Cc1cc(C)c(/C=N/NS(=O)(=O)c2ccccc2)c(C)c1 | – | > 100 µM | – | > 100 µM | – | > 100 µM | – | > 100 µM | – | > 100 µM | – | > 100 µM | – | > 100 µM | – | > 100 µM | – | > 100 | – | –
C[C@]12CCc3nn(-c4ccccc4)nc3C1CC[C@@H]1C2CC[C@]2(C)C(=O)CCC12 (some centres not stated) | – | > 100 µM | – | > 100 µM | – | > 100 µM | – | > 100 µM | – | > 100 µM | – | > 100 µM | – | > 100 µM | – | > 100 µM | – | > 100 | – | –
COC(=O)Nc1nc2ccc(C(=O)c3ccc(F)cc3)cc2[nH]1 | 1.72 µM | 58.3 µM | 1.12 µM | 56.2 µM | 0.639 µM | > 31.6 µM | 0.464 µM | 3.23 µM | 0.51 µM | 11.2 µM | 0.193 µM | 26.9 µM | 0.0517 µM | 0.211 µM | – | – | 0.242 | 0.778 | 0.858 µM | 0.298 µM
COC(=O)C(C(=O)C(=O)Nc1ccccc1C)c1nc2ccc([N+](=O)[O-])cc2[nH]c1=O (configuration not stated) | – | > 100 µM | – | > 100 µM | – | > 100 µM | – | > 100 µM | – | > 100 µM | – | > 100 µM | – | > 100 µM | – | > 100 µM | – | > 100 | – | –
